{"source": "patent US20250204515A1", "about": "“Heparanase Inhibition for Graft Protection” (University of Pittsburgh - Of the Commonwealth System of …, priority 2022, published 2025)", "key": {"HPSE": {"system": "HPSE", "test": "HPSE activity assay in rat lung tissue after 4 hours of EVLP", "conditions": "after 4-hours EVLP; heparin 1000-U/hour or SF4 1 μM in perfusate", "experimental": "HPSE activity assay. HPSE activity was measured via a β-glucuronidase activity assay using 4-methylumbelliferyl-β-D-glucuronide (4-MUG) substrate (Millipore-Sigma). Briefly, after 4 hours of EVLP, lung tissues were homogenized in cold PBS. […] Fluorescence (λex 360 nm/λem 460 nm) was continuously measured for 60 minutes using a fluorescence microplate reader (BioTech Synergy HTX, Agilent Technologies, Santa Clara, CA)."}, "rat lungs": {"system": "rat lungs", "test": "Rat EVLP for 4 hours with HPSE inhibitors in the perfusate: physiology, endothelial barrier, edema", "conditions": "heparin 1000-U/hour or SF4 1 μM in perfusate", "procedure": "In the heparin group, 1000-U of heparin were initially added to the EVLP perfusate, then 1000-U of heparin were administered every hour during EVLP. […] Two control conditions were included in the experimental protocol: 1) sham controls (Sham) were lungs not placed on EVLP and 2) untreated controls (Control) were lungs placed on EVLP without HPSE inhibitor treatment. EVLP physiology, endothelial integrity, inflammation and glycocalyx preservation for EVLP lungs and post-transplant lung grafts were investigated across all treatment regimens.\nEx vivo lung perfusion in rats: EVLP was performed using a commercially-available rodent EVLP system (IL-2 Isolated Perfused Rat or Guinea Pig Lung System; Harvard apparatus, Holliston, MA). Acellular Steen solution was used for EVLP perfusate and medicated with methylprednisolone (Solu-Medrol®; Pfizer, Inc., New York, NY) and cephalosporin (Cefazolin; WG critical care LLC, Paramus, NJ) equally in all experimental groups. […] Pulmonary artery pressure, peak airway pressure, and airway flow were monitored continuously, and dynamic lung compliance (Cdyn) and pulmonary vascular resistance (PVR) were analyzed.\nEvaluation of endothellal barrier Integrity After 4 hours of EVLP, 60 mg of Evans blue dye (EBD, Millipore-Sigma, Burlington, MA) was administered into the perfusate to assess vascular endothelial permeability. After 30 minutes of perfusion, the lung vascular bed was rinsed with 20 ml of phosphate-buffered saline (PBS), and slices of lungs were incubated in formamide (Millipore Sigma) overnight at 60° C. Absorbance of the extractant was measured at 620 nm, and EBD was normalized to dry-tissue weight.\nWet-to-Dry (W/D) weight ratio: Lung tissues collected 2 hours after transplant were immediately weighed then placed in a 60° C. oven to dry for 72 hours. Tissues were weighed again after drying to determine the wet-to-dry lung weight ratio."}, "[1]": {"system": "glycosaminoglycans (GAGs), syndecan-1", "test": "Glycocalyx shedding in rat lungs during EVLP (GAGs, syndecan-1 ELISA, immunofluorescence)", "conditions": "after 4 hours EVLP; SF4 vs heparin-treated, heparin vs controls", "experimental": "Syndecan-1 ELISA: Syndecan-1 concentrations in EVLP perfusate were quantitated using ELISA (Immunotag™ Rat Syndecan-1 ELISA, G-Biosciences, Geno Technology, Inc., St. Louis, MO). ELISA was performed according to the manufacturer's instructions using perfusate samples acquired after 4 hours of EVLP.\nDetermination of glycosaminoglycans (GAGS): The concentration of GAGs in rat EVLP perfusate at 4 hours was quantitated using 1,9-dimethylmethylene blue (DMMB, Millipore Sigma). The DMMB solution (pH˜3.0) was prepared by dissolving 16 mg/I DMMB in distilled H2O containing 3.04 g/I glycine, 1.6 g/l NaCl and 95 ml 0.1 M acetic acid. Briefly, 1 ml DMMB solution was mixed with 100 μl EVLP perfusate then incubated for 18 h at room temperature. The tubes were then centrifuged at 14,000 rpm for 20 min at 4° C. Supernatants were carefully decanted, 100 μl dissolvent buffer (4 M guanidine hydrochloride, 50 mM sodium acetate, 10% propan-1-ol, pH 6.8) was added to each pellet, and the tubes were incubated at 40° C. and vortexed until GAG-DMMB pellets were completely dissolved. GAG content in each sample was measured spectrophotometrically at 656 nm.\n(§1) Tissue staining and histopathological analysis: Formalin-fixed, paraffin-embedded lung tissues collected 2 hours after transplantation were sectioned to 4 μm thickness and stained with hematoxylin and eosin. In parallel, sections of tissue collected after 4 hours of EVLP were stained for immunofluorescence imaging using primary antibodies for syndecan-1 (DL-101) (#sc-12765, Santa Cruz) and caveolin-1 (#3238, Cell Signaling Technology, Danvers, MA) and with Hoechst 33342 dye (Thermo Scientific). Donkey Cy3-conjugated anti-mouse IgG (#AP192C, MilliporeSigma, Burlington, MA) and Cy5-conjugated goat anti-rabbit IgG (#A10523, Thermo Scientific) secondary antibodies were used to detect primary antibodies. Stained slides were scanned with a whole-slide image scanner (Axio Scan.Z1; Carl Zeiss AB, Oberkochen, Germany) and analyzed with digital image processing software (ZEN lite blue edition; Carl Zeiss)."}, "MMP-2": {"system": "MMP-2", "test": "Gelatin zymography of EVLP perfusate, inhibitors in perfusate", "design": "species or system rat", "conditions": "4 hours EVLP, vs SF4 and control groups", "experimental": "Gelatin zymography: Gelatin zymography was performed to measure secreted MMP-2 and MMP-9 activities in EVLP perfusate. Briefly, 20 μl of perfusate was mixed with 2×SDS sample buffer then loaded onto a 10% polyacrylamide gel containing 0.1% SDS and […]. After protein separation by electrophoresis, the gel was washed in renaturing buffer (Novex™ Invitrogen™) at room temperature, and then incubated in developing buffer (Novex™ Invitrogen™) overnight at 37° C. The next day, the gel was stained with Coomassie Brilliant Blue R-250 (Bio-Rad) and imaged (ChemiDoc, Bio-Rad). Enzyme activity, visualized as clear bands against the dark blue background, was quantified using Image-J (NIH)."}, "rat lung grafts": {"system": "rat lung grafts", "test": "Rat orthotopic left lung transplantation following EVLP", "assay_type": "in vivo", "conditions": "2 hours after transplant following 4 hours of EVLP", "experimental": "Rat orthotopic left lung transplantation following EVLP: Orthotopic, single-lung transplantation of the left lung was performed using the 3-cuff method. After EVLP for 4 hours, the lungs were cooled with 4° C. Perfadex on the EVLP system and stored at 4° C. for 1 hour prior to transplantation. The recipient animals were sacrificed 2 hours after reperfusion. When analyzing graft function, the native lung was clamped, 100% 02 was administered for 5 minutes through a ventilator, and the recipient's blood was sampled from the graft pulmonary vein for blood gas analysis.\nGraft tissues collected after 4 hours of EVLP and 2 hours after reperfusion were examined for relative mRNA expression levels of interleukin (IL)-6, IL-1, tumor necrosis factor (TNF)-α, and glyceraldehyde-3-phosphate dehydrogenase (GAPDH). Gene expression levels were normalized to GAPDH mRNA levels.\nas §1"}, "[2]": {"system": "human lung microvascular endothelial cells (HLMVECs)", "test": "In-vitro cellular toxicity test for HPSE inhibitor candidates", "experimental": "In-vitro cellular toxicity test for HPSE Inhibitor candidates: Human lung microvascular endothelial cells (HLMVECs) were obtained from the American Type Culture Collection (Rockville, MD, USA). Cells were cultured in a humidified incubator at 37° C. and 5% CO2 and grown in endothelial growth medium (EGM™-2 Endothelial Cell Growth Medium-2, Lonza, Basel, Switzerland) supplemented with 2% heat-inactivated fetal bovine serum and 0.04% hydrocortisone. Cell media was replaced every 48 hours, and the cells were split upon 80-90% confluence.\nFinal tested concentrations of HPSE inhibitors were calculated based upon repeatable in vitro dose-response studies. After 24 hours incubation, cell viability was confirmed by Trypan blue exclusion assay. Total mRNA was isolated using Trizol (Thermo Fisher Scientific Inc., Waltham, MA) and relative messenger RNA (mRNA) expression levels of hemeoxygenase-1 (HO-1), interleukin (IL)-6, tumor necrosis factor (TNF)-α, monocyte chemoattractant protein (MCP)-1, B-cell lymphoma 2 Associated X (Bax), B-cell lymphoma 2 (Bcl-2), B-cell lymphoma-extra-large (Bcl-xL) were quantified by SYBR Green 2-step, real-time, reverse transcription-polymerase chain reaction (RT-PCR). Relative gene expression levels were normalized to mRNA expression of glyceraldehyde-3-phosphate dehydrogenase (GAPDH) and compared to relative mRNA expression levels in control-treated HLMVEC."}}, "note": "“Also recorded” adds a separate entry of the source."}
{"substance": "heparin", "values": [{"measurement": "HPSE activity in the lungs", "setting": "HPSE", "value": "partially inhibited; also recorded: not sufficiently nor significantly inhibited"}, {"measurement": "pulmonary vascular resistance (PVR) during EVLP", "setting": "rat lungs; 4-hour EVLP", "value": "increased"}, {"measurement": "dynamic lung compliance (Cdyn) during EVLP", "setting": "rat lungs; 4-hour EVLP, vs control", "value": "neither heparin nor SF4 altered Cdyn"}, {"measurement": "Evans blue dye (EBD) accumulation in lung tissue", "setting": "rat lungs; after 4-hours EVLP", "value": "significantly more EBD had accumulated"}, {"measurement": "wet-to-dry (W/D) ratio", "setting": "rat lungs; after 4 hours of EVLP", "value": "further augmented"}, {"measurement": "syndecan-1 concentration in EVLP perfusate", "setting": "[1]", "value": "markedly increased; also recorded: significantly higher"}, {"measurement": "MMP-2 activity in EVLP perfusate", "setting": "MMP-2", "value": "significantly elevated"}, {"measurement": "H&E histology of grafts", "setting": "rat lung grafts", "value": "swollen alveolar walls, congestion in the blood vessels, and fluid leaks into the alveolar space"}, {"measurement": "post-transplant lung function (P/F ratio)", "setting": "rat lung grafts", "value": "significantly lower"}, {"measurement": "toxicity against HLMVECs (endothelial cell cultures)", "setting": "[2]", "value": "safe"}]}
